Data: publication PMC12303383, “The heme-regulated inhibitor kinase Hri1 is activated in response to aminolevulinic acid deficiency in Schizosaccharomyces pombe” (PLOS Genetics, 2025)

Assays:
[1] = target: T1, Hri1 (heme-regulated inhibitor kinase 1) (Schizosaccharomyces pombe, UniProt O13889); assay: differential absorbance spectral titration (Soret peak, […] nm) with purified protein; assay type: binding
T1 construct: MBP-tagged wild-type Hri1 expressed in E. coli, dephosphorylated with lambda phosphatase
T1 sequence (O13889 1-704): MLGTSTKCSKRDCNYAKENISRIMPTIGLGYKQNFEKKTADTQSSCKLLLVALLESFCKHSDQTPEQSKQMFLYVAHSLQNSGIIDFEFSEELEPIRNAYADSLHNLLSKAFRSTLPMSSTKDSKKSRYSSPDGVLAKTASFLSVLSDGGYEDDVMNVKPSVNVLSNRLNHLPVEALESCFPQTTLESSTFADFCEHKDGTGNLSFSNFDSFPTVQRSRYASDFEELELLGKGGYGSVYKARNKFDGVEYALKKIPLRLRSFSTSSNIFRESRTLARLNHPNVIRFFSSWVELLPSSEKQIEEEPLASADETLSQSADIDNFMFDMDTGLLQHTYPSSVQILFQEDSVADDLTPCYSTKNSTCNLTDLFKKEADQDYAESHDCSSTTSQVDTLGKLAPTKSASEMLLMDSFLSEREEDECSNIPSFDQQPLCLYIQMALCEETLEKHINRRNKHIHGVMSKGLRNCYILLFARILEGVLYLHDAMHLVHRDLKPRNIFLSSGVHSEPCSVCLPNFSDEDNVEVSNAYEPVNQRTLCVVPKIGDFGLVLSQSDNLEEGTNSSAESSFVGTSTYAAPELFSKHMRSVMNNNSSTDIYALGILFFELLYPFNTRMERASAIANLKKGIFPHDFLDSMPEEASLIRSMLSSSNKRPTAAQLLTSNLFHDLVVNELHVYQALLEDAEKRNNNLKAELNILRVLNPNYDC

[2] = target: T2, Hri2 (Schizosaccharomyces pombe, UniProt Q9UTE5); assay: as above; assay type: binding
T2 construct: MBP-tagged wild-type Hri2 expressed in E. coli, dephosphorylated with lambda phosphatase
T2 sequence (Q9UTE5 1-639): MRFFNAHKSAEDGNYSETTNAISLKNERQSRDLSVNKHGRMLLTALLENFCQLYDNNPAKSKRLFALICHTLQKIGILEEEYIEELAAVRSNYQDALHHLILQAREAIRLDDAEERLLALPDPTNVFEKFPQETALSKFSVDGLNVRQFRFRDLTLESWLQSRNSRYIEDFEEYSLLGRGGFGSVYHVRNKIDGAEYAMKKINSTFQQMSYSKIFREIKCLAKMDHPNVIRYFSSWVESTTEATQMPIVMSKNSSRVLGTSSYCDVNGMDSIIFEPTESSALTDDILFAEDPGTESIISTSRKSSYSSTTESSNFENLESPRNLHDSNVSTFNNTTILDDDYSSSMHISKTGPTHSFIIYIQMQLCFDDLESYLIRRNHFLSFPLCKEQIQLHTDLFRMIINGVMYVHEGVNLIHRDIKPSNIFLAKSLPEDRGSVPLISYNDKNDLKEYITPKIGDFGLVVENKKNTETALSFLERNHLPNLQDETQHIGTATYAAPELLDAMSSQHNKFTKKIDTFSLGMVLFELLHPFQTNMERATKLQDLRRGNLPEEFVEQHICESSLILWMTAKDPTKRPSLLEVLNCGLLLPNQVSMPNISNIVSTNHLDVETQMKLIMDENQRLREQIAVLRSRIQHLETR

SMILES: C=CC1=C(C)C2=Cc3c(C=C)c(C)c4[n]3[Fe]([Cl])[n]3c(c(C)c(CCC(=O)O)c3=CC3=NC(=C4)C(C)=C3CCC(=O)O)=CC1=N2 [hemin]
- Kd [1]: 110 nM
- Kd [2]: 1050 nM
